Results from patent publication US10656159B2, “Immunoassays of s-adenosylmethionine and methylation index in personalized medicine and health evaluation” (HUNAN SKYWORLD BIOTECHNOLOGIES CO, priority 2013, dated 2020).
“And” between values parts separate entries of the source, which are not always exact repeats. Identical values can stand only once. “Also recorded” adds a separate entry of the source.

How the values were obtained:
[1] = Stability of SAM and SAH in plasma at different pH; type: in vitro ADME, human; conditions: for Effect of pH on degradation: plasma, 15° C., pH 5.5-6.0, 7.0-7.5, 8.0-8.5; for Level at 1 day time point: maximum detection limit 1000 nM
Description: The stability of SAM and SAH was also tested in acidic and basic conditions at 15° C. Normal mixed plasma sample (S8) (with pH 7.84), samples S1, S2, S3, S4 (pH 7.0-7.5) were used in the experiments. 10 μl 5M HCl was added to 1260 μl plasma to adjust its pH to 5.5-6.0. In another set of samples, 2 μl 5M NaOH was added to 1260 μl plasma to adjust its pH to 8.0-8.5. Before using these acidic or basic samples to conduct the immunoassay, 1.1 μl 5M NaOH was added to 180 μl acidic samples; 0.376 μl 5M HCl was added to 180 μl basic samples to make them neutral. Meanwhile, standards were also added the same amount of acid and base as the samples.
This observation was consistent with a prior publication regarding pH stability of SAM (Parks, L W, et al. jbc.org Aug. 23, 1957). […] However basic environment has a stronger impact than acidic environment. The SAH data at 1 day time point, the SAH levels for pH 7.0-7.5 and pH 5.5-6.0 curves were measured to be greater than 1000 nM. The experiment has maximum detection limit as 1000 nM, only 1000 nM points were plotted, therefore the spikes at 1 day time point could not been see for pH 7.0-7.5 and pH 5.5-6.0 curves. This figure is meant to show the dynamics of SAH level for this particular sample. Difference among samples exists.

[2] = Dialysis of plasma: free and non-free SAM and SAH; type: in vitro ADME, human; conditions: for Amount left after dialysis: 37° C., 24 hour; for Non-free form left within the dialysis bag: dialysis 15° C., 24 hours, 20 mM phosphate buffer pH 7.4, bag MW 14,000
Description: To distinguish whether there are conjugated form of SAM and SAH in human plasma, we used dialysis bags to dialyze plasma samples at different temperature for 24 hours with at least two changes of dialyzing buffer (20 mM PB, pH7.4), then measured the SAM and SAH levels before and after dialysis.
Notice that for those SAH data which were greater than or equal to 1000 nM, only 1000 nM was used in the figure. Therefore, it is obvious that the immunoassays used in this invention can bind free SAM and SAH from human plasma. The differences of SAM or SAH as measured before and after dialysis (20 mM phosphate buffer, pH 7.4) for each sample represented the free SAM or SAH molecules that escaped from the dialysis bag (MW 14,000, Biosharp, USA) into the dialysis buffer, therefore they could not be detected from the sample collected from dialysis bag.
FIGS. 20A and 20B also show the percentages of SAM and SAH that were left within the dialysis bag after dialysis at 15° C. for 24 hours, which represented the amount of non-free SAM and SAH respectively.

[3] = Thermal stability of SAM and SAH in human plasma; type: in vitro ADME
Description: The stability of SAM and SAH at different temperatures, as well as their stability in acid and base environment were tested. The 310 human plasma samples were placed at room temperature for 2 hours. […] The increased SAH was due to de-methylation of SAM in ex vivi situation within a few hours of blood withdrawal.
Results from stability study for different temperature conditions, i.e. 4° C., 15° C. (room temperature), 37° C. and 56° C., were obtained mainly on SAM and partially on SAH measurements. Plasma from 4 individual samples S3, S4, S5 and S6 were used in 4° C., 15° C. and 37° C. experiments.
However, when samples were placed at room temperature (˜15° C.) and 37° C., SAM was degraded rapidly especially at 37° C., SAM degradation rate reached a maximum at about 4-6 hours under 37° C. […] At about 6 hours after blood withdrawal, SAM level was reduced whereas SAH level was increased. The values of SAH were recorded as >1000 nM from 6 hours to 3 days, thus SAH leaks were not shown. The level of SAH was maintained at a high level for about 3 days before it started to drop. SAM level went down continuously. […] It cannot be ruled out that inhibition of SAH converting to other metabolites or degradation also existed causing it to stay high for quite some time. It meant to show the dynamics of SAM and SAH for this particular sample. Difference among samples exists. Samples S1, S2, S3 and S4 were used in 56° C. experiments. The results are shown in FIG. 19F-G. SAM was quickly undetectable in 10 minutes at 56° C., whereas SAH was dramatically degraded in 10 minutes and fully undetectable after about 4 hours at 56° C.

[4] = oral, alcoholic liver cirrhosis, versus placebo; cited from earlier work
[5] = cELISA sensitivity / SAH standard curve; type: binding; conditions: HRP-anti-301-1 1:1000, 0.5 μg/ml BSA-SAH coat
Description: The cELISA result from Table 1C with obtained from 0.5 μg/ml BSA-SAH coated micro-titer plate, HRP-anti-301-1 at dilution of 1:1000 in PBS incubation system. Different amounts of coating antigen, antibody, and incubating buffer will give slightly different minimum detection limits.

[6] = test system: nucleolar 2-O-methyltransferase; conditions: cited from earlier work
[7] = 310 human plasma samples, room temperature 2 hours versus 4° C.

SMILES: C[S+](CC[C@H](N)C(=O)O)C[C@H]1O[C@@H](n2cnc3c(N)ncnc32)[C@H](O)[C@@H]1O (some centres unmarked) [SAM, S-Adenosylmethionine]
- Effect of pH on degradation [1]: degradation rate increased with pH values; also recorded: Low pH (acidic environment) helped prevent SAM from quick degradation
- Amount left after dialysis [2]: trivial or no SAM and SAH left
- Non-free form left within the dialysis bag [2]: 11-25%
- Reduction of level [3, 7]: 33.81%±19.43%
- Stability ([3]; plasma, 37° C.): reduced quickly in all samples
- Time at which degradation rate reached a maximum ([3]; plasma, 37° C.): 4 to 6 h
- Stability ([3]; plasma, 56° C.): reduced even faster than at 37 °C
- Time to undetectable ([3]; plasma, 56° C.): 10 min
- Overall mortality and/or progression to liver transplant [4]: 12%

SMILES: Nc1ncnc2c1ncn2[C@@H]1O[C@H](CSCC[C@H](N)C(=O)O)[C@@H](O)[C@H]1O [SAH, S-Adenosylhomocysteine]
- OD450 ([5]; SAH 3.906 nM): 0.7722 and 0.9144 and 0.7786
- OD450 Mean ([5]; SAH 3.906 nM): 0.8217
- OD450 ([5]; SAH 7.8125 nM): 0.7602 and 0.8113 and 0.7708
- OD450 Mean ([5]; SAH 7.8125 nM): 0.7808
- OD450 ([5]; SAH 15.625 nM): 0.8045 and 0.8273 and 0.7975
- OD450 Mean ([5]; SAH 15.625 nM): 0.8098
- OD450 ([5]; SAH 31.25 nM): 0.7285 and 0.8199 and 0.7545
- OD450 Mean ([5]; SAH 31.25 nM): 0.7676
- OD450 ([5]; SAH 62.5 nM): 0.6055 and 0.7115 and 0.6444
- OD450 Mean ([5]; SAH 62.5 nM): 0.6538
- OD450 ([5]; SAH 125 nM): 0.5421 and 0.6358 and 0.5372
- OD450 Mean ([5]; SAH 125 nM): 0.5717
- OD450 ([5]; SAH 250 nM): 0.4116 and 0.4426 and 0.442
- OD450 Mean ([5]; SAH 250 nM): 0.4321
- Level at 1 day time point ([1]; plasma pH 5.5-6.0, 15° C.): greater than 1000 nM
- Level at 1 day time point ([1]; plasma pH 7.0-7.5, 15° C.): greater than 1000 nM
- Effect of pH on degradation [1]: both acidic and basic environment speeded up plasma SAH degradation; also recorded: Both acid and base increased the speed SAH was degraded
- Amount left after dialysis [2]: trivial or no SAM and SAH left
- Non-free form left within the dialysis bag [2]: around 30%
- Increase of level [3, 7]: 21.05%±83.31%
- Time level was maintained at a high level before it started to drop ([3]; plasma, 15° C.): about 3 days
- Time to fully undetectable ([3]; plasma, 56° C.): about 4 hours

SMILES: C[S+](CC[C@H](N)C(=O)[O-])C[C@H]1O[C@@H](n2cnc3c(N)ncnc32)[C@H](O)[C@@H]1O (stereo partly drawn) [(S, S)-SAM-e]
- Binding tightness relative to (R, S)-SAM-e [6]: 10 fold
